This is an account of results in US10155990B2, “Method for predicting therapeutic efficacy of PI3K/AKT/mTOR inhibitor on basis of PHLDA1 or PIK3C2B expression” (Taiho Pharmaceutical Co., Ltd., priority 2013, dated 2018).

Common to all, as to type: cell-based
For experiment [1], the system named is panel of 240 cell lines composed of various cancers. Put plainly: GI50 versus PHLDA1/PIK3C2B expression in a panel of 240 cell lines (OncoPanel, Ricerca Biosciences). The note with it: panel of 240 cell lines of various cancers. An excerpt: It was also examined whether the expression level of PHLDA1 or PIK3C2B has a correlation with the sensitivity to PI3K/AKT/mTOR inhibitors in a panel of 240 cell lines (OncoPanel™, Ricerca Biosciences) composed of various cancers such as lung cancer, kidney cancer, liver cancer, pancreatic cancer, large bowel cancer, bladder cancer, breast cancer, head and neck cancer, prostate cancer, skin cancer, blood cancer, and malignant lymphoma.

For experiment [2], the system named is human ovarian cancer cell line OVCAR-3. Put plainly: Cytotoxicity after PIK3C2B gene knockdown, OVCAR-3. Conditions: relative cell count after three days, FIG. 3.
Experiment [3] deals with 37 cell lines from human breast cancer. Put plainly: Cytotoxicity assay (CellTiter-Glo, GI50) in 37 human breast cancer cell lines, related to PHLDA1/PIK3C2B expression, PIK3CA mutation, PTEN deletion. The procedure: A cytotoxicity assay was conducted as described below using 37 cell lines from human breast cancer (AU565, BT20, BT474, BT549, CAMA-1, DU4475, HCC1187, HCC1419, HCC1428, HCC1500, HCC1569, HCC1599, HCC1806, HCC1937, HCC1954, HCC202, HCC2218, HCC38, HCC70, MDA-MB-157, MDA-MB-175, MDA-MB-231, MDA-MB-361, MDA-MB-415, MDA-MB-436, MDA-MB-453, MDA-MB-468, UACC-812, and UACC-893 (all obtained from American Type Culture Collection (ATCC); MCF-7, SK-BR-3, T47D, and ZR-75-1 (all obtained from Sumitomo Dainippon Pharma Co., Ltd.); KPL-1, KPL-3C, and KPL-4 (provided by Dr. Kurebayashi at Kawasaki Medical School)). Each cell line was seeded into a 96-well flat-bottom microplate in an amount of 150 μL, and cultured in an incubator containing 5% carbon dioxide gas at 37° C. for one day. PI3K/AKT/mTOR inhibitors (AKT inhibitor: Compound-I, MK-2206, PI3K-mTOR dual inhibitor: BEZ235, PI3K inhibitor: GDC-0941, mTOR inhibitor: sirolimus) diluted stepwise with dimethylsulfoxide, paclitaxel diluted stepwise with dimethylsulfoxide, and dimethylsulfoxide were individually added to respective media for the cell lines. 50 μL of each of the media was added to the wells of the aforementioned 96-well flat-bottom microplate so that the final concentration of each drug became 10,000, 3,000, 1,000, 300, 100, 30, 3, and 1 nM. A separately prepared 96-well flat-bottom microplate in which each cell line was cultured for one day was allowed to stand at room temperature for 30 minutes, and 50 μL of the supernatant was removed from each well to leave 100 μL of the cell culture solution. […] The microplate was allowed to stand in a dark place for 10 minutes, and then the luminescence intensity of live cells of each well to which the drug were added was measured using a microplate reader (PerkinElmer, ARVOsx). […] The microplate was allowed to stand in a dark place for 10 minutes, and then the luminescence intensity of live cells of each well was measured using a microplate reader. […]
Subsequently, the expression level of PHLDA1 and PIK3C2B in the 37 cell lines from human breast cancer was measured. […]
For orientation: ATP-based viability assays read luminescence as a measure of living cells.

The test system of experiment [4] is human breast cancer cell line HCC1187. Put plainly: Cytotoxicity after PIK3C2B gene knockdown, HCC1187. The note with it: relative cell count after three days, FIG. 3.
Where [5] appears, read: 37 human breast cancer cell lines, 3 days drug exposure, FIG. 1.

For the compound `CC1(O)CC(N)(c2ccc(-c3nc4n(c3-c3ccccc3)COc3ccncc3-4)cc2)C1` (stereo not drawn) [Compound-I, trans-3-amino-1-methyl-3-(4-(3-phenyl-5H-imidazo[1,2-c]pyrido[3,4-e][1,3]oxazin-2-yl)phenyl)cyclobutanol], the “Correlation between logarithm of GI50 and logarithm of expression level of PHLDA1” value in experiment [1] is “significant correlation”. In experiment [1], the “Correlation between logarithm of GI50 and logarithm of expression level of PIK3C2B” value is “significant correlation”. Also, the “Change in sensitivity to drug caused by PIK3C2B gene knockdown” value (“Change in sensitivity to drug caused” below) in experiment [2] and in experiment [4] was “decrease in sensitivity” each time. Moreover, the “Correlation of PTEN deletion with sensitivity (GI50)” value in experiment [3] (36 cell lines, PTEN deletion in 8 cell lines, FIG. 4) was “did not show a correlation”.
As for `CC(=O)O[C@H]1C(=O)[C@@]2(C)[C@H]([C@H](OC(=O)c3ccccc3)[C@]3(O)C[C@H](OC(=O)[C@H](O)[C@@H](NC(=O)c4ccccc4)c4ccccc4)C(C)=C1C3(C)C)[C@]1(OC(C)=O)CO[C@@H]1C[C@@H]2O` [paclitaxel], the “Change in sensitivity to drug caused” value in experiment [2] and in experiment [4] was “almost no change” each time. For the same compound, the “Pearson correlation between logarithm of GI50 and logarithm of expression level of PHLDA1” value in experiment [3] (setting [5]) is “did not show a correlation”. In addition, the “Pearson correlation between logarithm of GI50 and logarithm of expression level of PIK3C2B” value in experiment [3] (setting [5]) is on record as “did not show a correlation”.
Turning to `CS(=O)(=O)N1CCN(Cc2cc3nc(-c4cccc5[nH]ncc45)nc(N4CCOCC4)c3s2)CC1` [GDC-0941, pictilisib], in experiment [1], the “Correlation between logarithm of GI50 and logarithm of expression level of PHLDA1” value is recorded as “significant correlation”; the “Correlation between logarithm of GI50 and logarithm of expression level of PIK3C2B” value is “significant correlation”. Moreover, the “Change in sensitivity to drug caused” value in experiment [2] is “decrease in sensitivity”. In experiment [4], the “Change in sensitivity to drug caused” value is listed as “decrease in sensitivity”.
Turning to `NC1(c2ccc(-c3nc4ccn5c(=O)[nH]nc5c4cc3-c3ccccc3)cc2)CCC1` [MK-2206], in experiment [1], the “Correlation between logarithm of GI50 and logarithm of expression level of PHLDA1” value is recorded as “significant correlation”; the “Correlation between logarithm of GI50 and logarithm of expression level of PIK3C2B” value is on record as “significant correlation”.
With `Cn1c(=O)n(-c2ccc(C(C)(C)C#N)cc2)c2c3cc(-c4cnc5ccccc5c4)ccc3ncc21` [BEZ235, dactolisib], in experiment [1], the “Correlation between logarithm of GI50 and logarithm of expression level of PHLDA1” value is “significant correlation”; the “Correlation between logarithm of GI50 and logarithm of expression level of PIK3C2B” value is on record as “significant correlation”.
